Patent EP0335545B2, “Pharmaceutical formulations for parenteral use” (UNIVERSITY OF FLORIDA, priority 1988, dated 1989)
Converted amounts (≈) assume the structure as drawn. Read-outs that look alike come from different tables or passages of the source.

How the values were obtained:
physchem = assay type: physicochemical
Procedure: The retention time was 5.2 min. Other compounds were assayed spectrophotometrically.

[1] = Lung and brain concentrations in male rats after i.v. E2-CDS in DMSO or as HPCD complex (HPLC with pre-column enrichment); assay type: in vivo, Sprague-Dawley rats
Description: The loss of sensitivity resulting from the dilution step in the procedure optimal for pretreatment of biological samples (see sample preparation without extraction) could be compensated for by developing an HPLC system that allows injection of large volumes. A suitable HPLC-method which has been described in the literature [Roth et al, J. Chromatogr. 222: 13-22 (1981)] is based on alternating pre-column sample enrichment. The procedure used herein was as follows: The sample containing the drug is injected with a first pump A, delivering pure water, onto one of two pre-columns, which are alternatingly connected with the injection system by two pneumatically driven valves. Provided a certain lipophilicity, the drug is retained and concentrated on the pre-column, while accompanying water soluble-co-products like proteins are being washed out as long as water is pumped through the pre-column. This allows the direct injection of body fluids. After a certain enrichment time (6 and 8 minutes), simultaneous rotation of the two valves is induced, causing pre-column 1, where the injected drug has been absorbed, to be switched to the solvent stream of the second pump, B. Also, at this point, the recording integrator is started. Pump B delivers the mobile phase, necessary for separation and chromatography, and backflushes the sample from pre-column 1 onto the analytical column. Parallel to this process, pre-column 2 is switched to the water stream of pump A so that a sample can be injected and enriched while the previous one is being eluted (alternating mode). Volumes up to 1800 µL can be injected due to the concentration effect of the enrichment phase.
This system was applicable to the quantification of E2, E2-CDS and E2-Quat. The mobile phase for E2-CDS was: Acetonitrile/water 80:20 at a flow rate of 1.8 mL/minute. Optimal peak shape and retention time for E2 and E2-Ouat were obtained with pump B delivering a mixture of acetonitrile/water 42:58 which contained 0.025 M/L sodium salt of 1-octanesulfonic acid and 0.003 M/L tetrabutylammonium phosphate. […]

[2] = 37°C
[3] = 15 mg/kg in DMSO relative to 5 mg/kg as complex with HPCD in water, i.v., within the first hour

CN1C=CCC(C(=O)O[C@H]2CC[C@H]3[C@@H]4CCc5cc(O)ccc5[C@H]4CC[C@]23C)=C1 [Example E2-CDS, 3-Hydroxy-17β-[(1-methyl-1,4-dihydropyridin-3-yl)carbonyl]oxyestra-1,3,5(10)-triene]
increase in incorporation with the lower ASDS material (physchem): 15%
increase in solubility over the solubility in water (physchem): 150,000 fold
slope of millimolarity of E2-CDS solubilized versus millimolarity of HPCD added (estimation of bulk stability of the complex) (physchem): 0.2
solubility (physchem; 10 mm aqueous β-cyclodextrin, Maximum Solubility): 27 µg/mL (≈ 68.6 µM)
solubility (physchem; 10 mm aqueous γ-cyclodextrin, Maximum Solubility): 22 µg/mL (≈ 55.9 µM)
solubility (physchem; 50 mm aqueous α-cyclodextrin, Maximum Solubility): 5 µg/mL (≈ 12.7 µM)
solubility (physchem; 62.5% w/v aqueous hpcd, Maximum Solubility): 30200 µg/mL (≈ 76700 µM)
solubility (physchem; water, Maximum Solubility (solubility of E2-CDS in water)): 0.2 µg/mL (≈ 0.508 µM)
solubility (physchem; water, water solubility): 0.2 µg/mL (≈ 0.508 µM)
initial lung concentrations of E2-CDS, corrected for dose [1, 3]: more than ten-fold
initial lung concentrations of E2-Quat, corrected for dose [1, 3]: more than ten-fold
brain levels of E2-Quat, corrected for dose ([1]; after 1 hour, HPCD complex in water compared to DMSO): not significantly different
inhibition of second order rate of oxidation ([2]; 0.5% w/v cyclodextrin): 42%
inhibition of second order rate of oxidation ([2]; 1.0% w/v cyclodextrin): 60%
inhibition of second order rate of oxidation ([2]; 2% cyclodextrin): 81%
reduction in the second order rate of oxidation ([2]; 5-20% cyclodextrin): approximately 90%
